Reference: ChEMBL document CHEMBL1201862, “PubChem BioAssay data set” (2004)
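Method: 48-hour compound exposure of cells in 96-well plates, five concentrations, linear interpolation of endpoints. At the GI50, growth is halved.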 Active and inactive are the calls of the source. Rule as the data show it: active = GI50 up to about 1.1 µM and inactive = higher.

Key:
Experiment in all cases: NCI anticancer screen, dose series, 48 h
DLD-1 = test system: DLD-1
DMS-114 = test system: DMS-114
DMS-273 = test system: DMS-273
LXFL 529 = test system: LXFL 529
M19-MEL = test system: M19-MEL
SNB-78 = test system: SNB-78
XF498 = test system: XF498
HOP-18 = test system: HOP-18
RXF 631 = test system: RXF 631

Measured: GI50

CC1(C)CC(/C=C2/OC(=O)c3ccccc32)=C(C(N)=O)C(=O)O1
inactive: DLD-1 > 100 µM | DMS-114 > 100 µM | DMS-273 > 100 µM | LXFL 529 > 100 µM | M19-MEL > 100 µM | SNB-78 > 100 µM | XF498 > 100 µM

O=C(Nc1ccccc1C(=O)O)C(=O)C(C(=O)c1ccccc1-c1ccccc1)C1OC(=O)c2ccccc21 (centres undefined)
inactive: DLD-1 23.5 µM | DMS-273 26.5 µM | HOP-18 12.6 µM | LXFL 529 14.7 µM | M19-MEL 21.1 µM | SNB-78 > 100 µM | XF498 10.3 µM

Nc1ncnc2c1ncn2C1OC(CSCC(F)(F)F)C(O)C1O (centres undefined)
inactive: DLD-1 > 100 µM | DMS-273 > 100 µM | HOP-18 > 100 µM | LXFL 529 > 100 µM | M19-MEL > 100 µM | SNB-78 > 100 µM | XF498 > 100 µM

OCCc1cnco1
inactive: DLD-1 > 100 µM | DMS-114 > 100 µM | DMS-273 63.8 µM | HOP-18 > 100 µM | LXFL 529 > 100 µM | M19-MEL > 100 µM | SNB-78 > 100 µM

CC(N)Cc1ccc(C(=O)Cl)cc1 (centres undefined)
inactive: DLD-1 > 100 µM | DMS-114 > 100 µM | LXFL 529 > 100 µM | M19-MEL > 100 µM | RXF 631 > 100 µM | XF498 > 100 µM

COc1ccc(C(=O)C(C(=O)C(=O)Nc2nc3ccc(OC)cc3s2)c2ccc(OC)cc2)cc1 (centres undefined)
inactive: DLD-1 > 100 µM | DMS-114 90.2 µM | DMS-273 > 100 µM | HOP-18 90.6 µM | LXFL 529 > 100 µM | M19-MEL > 100 µM | RXF 631 > 100 µM | SNB-78 > 100 µM | XF498 > 100 µM

O=C(CSc1ncnc2[nH]cnc12)c1ccccc1
inactive: DLD-1 > 100 µM | DMS-114 > 100 µM | DMS-273 > 100 µM | HOP-18 > 100 µM | LXFL 529 > 100 µM | M19-MEL > 100 µM | SNB-78 > 100 µM | XF498 > 100 µM

COc1ccc(N2C(=O)[C@@H](N=[N+]=[N-])[C@@H]2[C@H]2COC(C)(C)O2)cc1
inactive: DMS-114 > 100 µM | DMS-273 > 100 µM | HOP-18 > 100 µM | LXFL 529 > 100 µM | M19-MEL > 100 µM | SNB-78 > 100 µM

N#CC(C(=O)CCCC(=O)Nc1ccc(Cl)cc1Cl)c1ccc(Cl)cc1 (centres undefined)
inactive: DLD-1 > 100 µM | DMS-273 > 100 µM | HOP-18 31.7 µM | LXFL 529 > 100 µM | RXF 631 > 100 µM | SNB-78 > 100 µM | XF498 > 100 µM

CN1C(=O)C2C3C=C4c5ccccc5N(c5ccccc5)C4(C2C1=O)[C@H]1C(=O)N(C)C(=O)[C@@H]31 (some centres undefined)
inactive: DLD-1 > 100 µM | DMS-114 66.4 µM | LXFL 529 > 100 µM | M19-MEL > 100 µM | XF498 > 100 µM

c1ccc2cc3[s+]snc3cc2c1
inactive: DLD-1 > 100 µM | DMS-273 > 100 µM | HOP-18 > 100 µM | LXFL 529 85.1 µM | M19-MEL > 100 µM | RXF 631 > 100 µM | SNB-78 > 100 µM | XF498 > 100 µM

Nc1ccn(CCOC(=O)c2ccccc2)c(=O)n1
inactive: DLD-1 > 100 µM | DMS-273 > 100 µM | HOP-18 > 100 µM | LXFL 529 > 100 µM | RXF 631 > 100 µM | SNB-78 > 100 µM

COC1OC(CO)C(O)C(NC(=O)N(C)N=O)C1O (centres undefined)
inactive: DLD-1 > 100 µM | DMS-114 > 100 µM | DMS-273 > 100 µM | HOP-18 > 100 µM | LXFL 529 > 100 µM | M19-MEL > 100 µM | SNB-78 > 100 µM | XF498 > 100 µM

COC(=O)Cc1cc(=O)n2c3ccccc3n(C)c2c1C#N
inactive: DLD-1 > 100 µM | DMS-114 > 100 µM | DMS-273 > 100 µM | M19-MEL > 100 µM | SNB-78 > 100 µM | XF498 > 100 µM

CC(C)(C)c1ccnc(/N=C2\N/C(=N\c3cc(C(C)(C)C)ccn3)c3ccccc32)c1
inactive: DLD-1 21.9 µM | DMS-273 > 10 µM | HOP-18 18.3 µM | LXFL 529 41.9 µM | M19-MEL 33.1 µM | SNB-78 19.9 µM | XF498 15.5 µM

COc1ccc(C(=O)NCCN(C)C)c2nc3ccccc3nc12
inactive: DLD-1 4.23 µM | DMS-114 3.39 µM | DMS-273 4.6 µM | HOP-18 > 30.8 µM | LXFL 529 6.7 µM | M19-MEL 3.15 µM | RXF 631 9.12 µM | SNB-78 3.72 µM

CCOC(=O)N1C(c2ccccc2)C=CC(c2ccccc2)N1C(=O)OCC (centres undefined)
inactive: DLD-1 > 100 µM | DMS-114 > 100 µM | HOP-18 > 100 µM | M19-MEL > 100 µM | SNB-78 > 100 µM | XF498 > 100 µM

CCCCOCc1cc(CN2CCN(C)CC2)c(O)c2ncccc12
inactive: DLD-1 8.05 µM | DMS-114 6.38 µM | DMS-273 12.1 µM | HOP-18 5.35 µM | LXFL 529 11.9 µM | M19-MEL 26.7 µM | RXF 631 53.7 µM | SNB-78 31 µM | XF498 30.8 µM

O=C(O)CNc1c2ccccc2[n+]([O-])c2ccccc12
inactive: DLD-1 87.3 µM | DMS-114 47.9 µM | DMS-273 81.8 µM | HOP-18 36.1 µM | LXFL 529 34.6 µM | M19-MEL > 100 µM | RXF 631 > 100 µM | SNB-78 > 100 µM

[N-]=[N+]=NC(CBr)c1cn([C@H]2C[C@H](O)[C@@H](CO)O2)c(=O)[nH]c1=O (some centres undefined)
inactive: DLD-1 > 100 µM | DMS-114 > 100 µM | DMS-273 > 100 µM | HOP-18 1.99 µM | LXFL 529 > 100 µM | M19-MEL > 100 µM | SNB-78 > 100 µM

Cn1nc(-c2ccccc2)c(C(=O)/C=C/c2ccc(Cl)cc2)c(N2CCOCC2)c1=O
inactive: DLD-1 2.96 µM | DMS-114 2.78 µM | DMS-273 3.3 µM | HOP-18 4.48 µM | LXFL 529 2.92 µM | M19-MEL 5.24 µM | RXF 631 4.79 µM

N#C/C(=C\c1ccccc1O)C(N)=O
inactive: DLD-1 70.1 µM | DMS-114 44.6 µM | DMS-273 > 100 µM | LXFL 529 72.8 µM | M19-MEL > 100 µM | RXF 631 > 100 µM | SNB-78 46 µM | XF498 28.1 µM

CN(C)CCNC(=O)c1cccc2nc3cc(Cl)ccc3nc12
inactive: DLD-1 2.68 µM | DMS-114 1.83 µM | DMS-273 1.98 µM | HOP-18 17.5 µM | LXFL 529 2.14 µM | M19-MEL 1.8 µM | SNB-78 2.65 µM
